According to patent US20080317692A1, “SUICIDE SUBSTRATES OF TYROSINASE AND USE THEREOF” (SUSTINEO BIOTECHNOLOGY CO., LTD, priority 2007, published 2008):

How the values were obtained:
mushroom tyrosinase [1] = test: HPLC analysis of the reaction of isoflavone with tyrosinase (substrate behaviour); assay type: biochemical; conditions: 100 μM isoflavone, tyrosinase 1000 units/mL, 50 mM phosphate buffer pH 6.8 (FIG. 3)
mushroom tyrosinase [2] = test: Michaelis constant and maximal inactivation rate constant (method of Frere et al.); assay type: biochemical; conditions: for maximal inactivation rate constant ki-max / Ki: 0.03 μM tyrosinase, 2.5 mM L-DOPA as enzyme substrate, 50 to 300 μM suicide substrate (FIG. 6); for Ki: read-out: Michaelis constant KI of the inactivator
From the text: The kinetics of inhibition of 7,8,4′-trihydroxyisoflavone and 5,7,8,4′-tetrahydroxyisoflavone were studied by using the method of Frere et al. and by measuring the oxidation of L-DOPA by mushroom tyrosinase in the presence of each of the two suicide substrates. During the assay, the concentration of the tested suicide substrate was much higher than that of the enzyme. When the progress of the inactivation of the enzyme was monitored at high suicide substrate/enzyme ratios, the concentration of suicide substrate ([I]) could be considered as constant throughout the process and a pseudo-first-order rate constant (ki) could be determined by using equation 1, where ki-max and KI represent the maximal inactivation velocity and the Michaelis constant of the inactivator.
In the presence of L-DOPA, the exponential decrease in the rate of oxidation of L-DOPA gave an apparent first-order rate constant kobs, which was computed from plots of ln(vt/v0) against t, where v0 and vt are the rates of increase of absorbance at 475 nm, at zero time and at time t, respectively. Assuming a competitive interaction between the added isoflavone and L-DOPA with the enzyme, the variation of kobs with the concentrations of the isoflavone ([I]) and L-DOPA ([S]) are given by equation 2
where KS and KI are the Michaelis constants for L-DOPA and the isoflavone, respectively. When equation 2 is written as
[I]/kobs=[I]/ki-max+KI/ki-max(1+[S]/KS) (3)
it is clear that a plot of [I]/kobs against [I] will be linear and that ki-max and KI can be found from the intercept and slope.
The Michaelis constants (KI) and maximal inactivation rate constants (ki-max) of suicide substrates were determined according to the method of Frere et al. (17). The inactivation reactions were carried out in the presence of 0.03 μM mushroom tyrosinase, 2.5 mM L-DOPA, and the suicide substrate at concentrations ranging from 50 to 300 μM, and the formation of dopachrome was monitored every second for 2 min with a spectrophotometer. […] Both KI and ki-max could thus be calculated, assuming a competition between the added isoflavone and L-DOPA.

mushroom tyrosinase [3] = test: Irreversible inhibitory activity assay (preincubation with tyrosinase, then L-DOPA); conditions: for enzyme inactivation after preincubation: 10 μM isoflavone, after 7 min of preincubation (FIG. 4); for type of inhibition: preincubation with 3 or 10 μM isoflavone
Protocol: In irreversible inhibitory activity assays, 20 units of tyrosinase was preincubated with a 3 or 10 μM concentration of the tested isoflavone (dissolved in DMSO) in 1 mL of 50 mM phosphate buffer (pH 6.8) at 25° C. At intervals of 0, 2, 7, 12, and 30 min, 200 μL of the preincubation mixture was mixed with 800 μL of 2.5 mM L-DOPA and incubated at 25° C. for 10 min. The formation of dopachrome in each reaction was monitored with a spectrophotometer. The relative activity was calculated by dividing the absorbance at 475 nm of each reaction by that of the control reaction, in which DMSO replaced the added isoflavone. For recovery experiments, the preincubation mixture incubated for 30 min was either dialyzed twice against 200 mL of phosphate buffer at 4° C. for 1 h with stirring or centrifuged through a Sephadex G-25 spin column (Sigma). Then, the residual tyrosinase activities of the mixtures from the two treatments were assayed as described above.
Then, 800 μL of 2.5 mM L-DOPA was added, and the reaction mixture was incubated at 25° C. for 10 min. For comparison, another set of experiments was conducted by mixing immediately the tested compound, tyrosinase, and L-DOPA in 1 mL of phosphate buffer and incubated at 25° C. for 10 min. The formation of dopachrome in each reaction was monitored with a spectrophotometer. The relative activity was calculated by dividing the absorbance at 475 nm of each reaction mixture by that of the control reaction, in which DMSO replaced the tested compound. All enzymatic reactions described above were carried out at least three times independently, and the average values are presented.

mushroom tyrosinase [4] = test: Enzymatic assay of tyrosinase (dopachrome formation at 475 nm, L-tyrosine or L-DOPA as substrate); assay type: biochemical; conditions: 0.05 mM isoflavone; for inhibition of monophenolase activity (dopachrome formation): 0.1 mM L-tyrosine as substrate (FIG. 2A); for lag time of monophenolase activity (L-tyrosine oxidation): 0.1 mM L-tyrosine, tyrosinase 100 units/mL (FIG. 2A)
Protocol: Ten microliters of the test sample (dissolved in DMSO) was mixed with 970 μL of 0.112 mM substrate (L-tyrosine or L-DOPA dissolved in 50 mM phosphate buffer, pH 6.8) at 25° C. for 2 min. […] The increase in absorbance at 475 nm due to the formation of dopachrome was monitored with a spectrophotometer.

mushroom tyrosinase [5] = test: Partition ratio of suicide substrate (method of Waley, titration of tyrosinase); assay type: biochemical; conditions: for molecules required to inactivate 1 molecule of the enzyme (1+r): 0.1 μM tyrosinase, preincubated 30 min at 25° C., by extrapolation (FIG. 5); for partition ratio r: from the intercept on the abscissa in FIG. 5, which is 1+r

Compound | behaviour as substrate of tyrosinase (HPLC) (mushroom tyrosinase [1]) | maximal inactivation rate constant ki-max (mushroom tyrosinase [2]) [L·min] | Ki (mushroom tyrosinase [2]) [µM] | enzyme inactivation after preincubation (mushroom tyrosinase [3]) | type of inhibition (mushroom tyrosinase [3]) | inhibition of monophenolase activity (dopachrome formation) (mushroom tyrosinase [4]) | lag time of monophenolase activity (L-tyrosine oxidation) (mushroom tyrosinase [4]) | molecules required to inactivate 1 molecule of the enzyme (1+r) (mushroom tyrosinase [5]) [molecules] | partition ratio r (mushroom tyrosinase [5]) | Michaelis constant KS for L-DOPA (mushroom tyrosinase [2]; same experimental conditions) [mM]
O=c1c(-c2ccc(O)cc2)coc2c(O)c(O)cc(O)c12 [5,7,8,4′-tetrahydroxyisoflavone] | acted as the substrates of mushroom tyrosinase | 1.01 ± 0.04 | 7.81 ± 0.05 | totally inactivated | irreversible inhibitors | slowed and stopped the formation of dopachrome | without the lag time | 36.5±3.8 | 35.5±3.8 | 
O=c1c(-c2ccc(O)cc2)coc2c(O)c(O)ccc12 [7,8,4′-trihydroxyisoflavone] | acted as the substrates of mushroom tyrosinase | 0.79 ± 0.08 | 18.7 ± 2.31 | totally inactivated | irreversible inhibitors | slowed and stopped the formation of dopachrome | without the lag time | 82.7±5.9 | 81.7±5.9 | 
N[C@@H](Cc1ccc(O)c(O)c1)C(=O)O [L-DOPA, 3,4-dihydroxyphenylalanine, reference compound] |  |  |  |  |  |  |  |  |  | 0.25 ± 0.01
